The values that follow come from ChEMBL document CHEMBL1201862, “PubChem BioAssay data set” (2004).

Among the test systems are T47D; MDA-N; SNB-75; SK-MEL-5; HCT-116; NCI-H226; HL-60; A549; EKVX; NCI-H23; NCI-H460; TK-10; SR; HOP-92; LOX IMVI; SN12C; SW-620; CAKI-1; MOLT-4; KM-20L2.
What all share (assay): growth of human tumour cells (NCI), 48 h

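Exposure lasted 48 hours, with cells grown in 96-well plates and compounds tested at five concentrations. Here, GI50 denotes the concentration required for 50% inhibition of growth.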 Activity calls are given as the source filed them. No stated cut-off is given here; in the data, active = GI50 up to about 1.1 µM and inactive = higher.

For `O=[N+]([O-])/C(C(Cl)=C(Cl)Cl)=C(/Sc1ccccc1)N1CCCCC1`, the GI50 in the experiment on T47D is 11.9 µM (inactive); in the experiment with MDA-N it was > 61.5 µM (inactive); in the experiment on SNB-75, > 100 µM (inactive); with SK-MEL-5, 24.5 µM (inactive); with HCT-116 it was 37.8 µM (inactive); in the experiment with NCI-H226, > 100 µM (inactive). For the same compound, the GI50 in the experiment on HL-60 was 2.24 µM (inactive); in the experiment on A549 it was > 93.5 µM (inactive); with EKVX, > 91.4 µM (inactive); with NCI-H23, > 100 µM (inactive); in the experiment on NCI-H460, > 100 µM (inactive); with TK-10, > 100 µM (inactive). Further, the GI50 in the experiment on SR was 2.79 µM (inactive); with HOP-92, > 100 µM (inactive); with LOX IMVI, 8.45 µM (inactive); in the experiment with SN12C, > 100 µM (inactive); with SW-620, > 100 µM (inactive); in the experiment on CAKI-1, > 22.9 µM (inactive). Also, in the experiment with MOLT-4, the GI50 was 3.52 µM (inactive).
Consider `COc1ccccc1/N=N/c1c(-c2ccccc2)nn(C(=O)CC(=O)Nc2cccc(C)c2)c1-c1ccccc1`, for which the GI50 with SNB-75 is 11.8 µM (inactive); with SK-MEL-5, 18.7 µM (inactive); in the experiment with HCT-116 it was 28 µM (inactive); with NCI-H226 it was 36.3 µM (inactive); with HL-60, 15.3 µM (inactive); in the experiment on A549, 26.5 µM (inactive). Besides, the GI50 in the experiment with EKVX was 41.2 µM (inactive); in the experiment with NCI-H23 it was 24.1 µM (inactive); with NCI-H460 it was 27.2 µM (inactive); in the experiment on TK-10, 72.1 µM (inactive); with LOX IMVI, 27.5 µM (inactive); with SN12C it was 20.8 µM (inactive). Further, the GI50 is 41.3 µM (inactive) with SW-620, 23.3 µM (inactive) with CAKI-1, 10.7 µM (inactive) with MOLT-4 and 27.3 µM (inactive) in the experiment on KM-20L2.
`Cc1cc(C)c(S(=O)(=O)N(CCCCCCN)OCCCON(CCCCCCN)S(=O)(=O)c2c(C)cc(C)cc2C)c(C)c1`: the GI50 with T47D was 1.91 µM (inactive); with MDA-N it was 1.88 µM (inactive); in the experiment on SNB-75 it was 1.79 µM (inactive); in the experiment with SK-MEL-5 it was 1.82 µM (inactive); with HCT-116, 1.69 µM (inactive); in the experiment with NCI-H226, 1.79 µM (inactive). In addition, the GI50 was 2.15 µM (inactive) in the experiment with HL-60; 1.72 µM (inactive) in the experiment with A549; 1.79 µM (inactive) in the experiment on EKVX; 1.63 µM (inactive) with NCI-H23; 1.64 µM (inactive) with NCI-H460; 1.58 µM (inactive) in the experiment on TK-10. Further, the GI50 in the experiment on SR is 2.51 µM (inactive); with HOP-92, 1.46 µM (inactive); in the experiment with LOX IMVI it was 1.7 µM (inactive); in the experiment on SN12C it was 1.9 µM (inactive); with SW-620, 2.15 µM (inactive); with CAKI-1, 1.94 µM (inactive). The GI50 in the experiment on MOLT-4 is 2.44 µM (inactive).
On to `S=C1Cc2c(-c3ccccc3)cc(-c3ccc(Cl)cc3)nc2-c2ccccc2N1`, for which the GI50 with T47D is 4.32 µM (inactive); with MDA-N it was 4.27 µM (inactive); in the experiment with SNB-75, 0.951 µM (active); in the experiment on SK-MEL-5, 3.47 µM (inactive); in the experiment on HCT-116, 1.85 µM (inactive); with NCI-H226, 2.9 µM (inactive). In addition, the GI50 with HL-60 is 16.9 µM (inactive); in the experiment on A549, 3.17 µM (inactive); in the experiment with EKVX, 2.52 µM (inactive); in the experiment with NCI-H23 it was 2.88 µM (inactive); in the experiment on NCI-H460, 3.27 µM (inactive); in the experiment on TK-10, 2.12 µM (inactive). Moreover, the GI50 with SR is > 68.7 µM (inactive); with HOP-92, 1.72 µM (inactive); with LOX IMVI, 3.41 µM (inactive); in the experiment on SN12C it was 1.63 µM (inactive); with SW-620 it was 2.94 µM (inactive); in the experiment on CAKI-1, 1.36 µM (inactive). In the experiment with MOLT-4, the GI50 is 3.79 µM (inactive).
Consider `CCOC(=O)[C-]([N+]#N)[Si](C)(C)C`, for which the GI50 was > 100 µM (inactive) with SNB-75; > 100 µM (inactive) in the experiment on SK-MEL-5; 53.1 µM (inactive) in the experiment on HCT-116; > 100 µM (inactive) in the experiment with A549; 75.5 µM (inactive) in the experiment with NCI-H23; > 100 µM (inactive) in the experiment with NCI-H460. The GI50 was > 100 µM (inactive) with TK-10; > 100 µM (inactive) in the experiment with HOP-92; 85.9 µM (inactive) with LOX IMVI; > 100 µM (inactive) with SN12C; > 100 µM (inactive) in the experiment on SW-620; > 100 µM (inactive) with CAKI-1. Also, in the experiment with KM-20L2, the GI50 was > 100 µM (inactive).
As for `CC(=O)O[C@H]1CC[C@@]2(C)C(=CC[C@H]3[C@@H]4C[C@H](N5CCCC5)[C@H](OC(C)=O)[C@@]4(C)CC[C@@H]32)C1`, the GI50 with T47D is > 100 µM (inactive); with MDA-N, > 51.1 µM (inactive); in the experiment on SNB-75, > 100 µM (inactive); in the experiment on SK-MEL-5 it was 23 µM (inactive); in the experiment with HCT-116, > 56.5 µM (inactive); in the experiment on NCI-H226, > 100 µM (inactive). Further, the GI50 in the experiment on HL-60 is > 45.7 µM (inactive); in the experiment with A549 it was > 100 µM (inactive); with EKVX, > 100 µM (inactive); in the experiment with NCI-H23, > 100 µM (inactive); with NCI-H460 it was > 100 µM (inactive); with TK-10, > 100 µM (inactive). Also, the GI50 in the experiment with SR is > 100 µM (inactive); in the experiment on HOP-92, > 100 µM (inactive); with LOX IMVI, 49.2 µM (inactive); with SN12C, > 100 µM (inactive); in the experiment on SW-620 it was > 100 µM (inactive); with CAKI-1, > 100 µM (inactive). The GI50 with MOLT-4 was > 81.5 µM (inactive).
For the compound `O=C(COc1ccc(Cl)cc1)N1CCN(C(=O)COc2ccc(Cl)cc2)c2ccccc21`, the GI50 was 45.6 µM (inactive) with SNB-75; 30.4 µM (inactive) in the experiment on HCT-116; 13.4 µM (inactive) with HL-60; 33.5 µM (inactive) in the experiment with A549; 26.3 µM (inactive) in the experiment on EKVX; > 100 µM (inactive) with NCI-H23. Moreover, the GI50 was 60.7 µM (inactive) in the experiment with NCI-H460; 33.4 µM (inactive) in the experiment on TK-10; 30.3 µM (inactive) with HOP-92; 91.2 µM (inactive) with LOX IMVI; > 100 µM (inactive) with SW-620; 19.2 µM (inactive) in the experiment with MOLT-4. Moreover, in the experiment with KM-20L2, the GI50 was > 100 µM (inactive).
With `COc1ccc(C2=Cc3nc2c(-c2ccccc2)c2ccc([nH]2)c(-c2ccccc2)c2nc(c(-c4ccccc4)c4ccc([nH]4)c3-c3ccccc3)C=C2)cc1`, the GI50 with T47D was > 100 µM (inactive); in the experiment with MDA-N, > 100 µM (inactive); in the experiment with SNB-75, 25.2 µM (inactive); in the experiment on SK-MEL-5, > 100 µM (inactive); in the experiment on HCT-116, > 100 µM (inactive); in the experiment with NCI-H226 it was > 100 µM (inactive). Also, the GI50 in the experiment on HL-60, in the experiment on A549, in the experiment on EKVX, with NCI-H23, with NCI-H460 and with TK-10 was > 100 µM (inactive) each time. For the same compound, the GI50 in the experiment on SR is > 100 µM (inactive); in the experiment on HOP-92, 35.2 µM (inactive); in the experiment with LOX IMVI, > 100 µM (inactive); in the experiment on SN12C it was > 100 µM (inactive); in the experiment on SW-620, > 100 µM (inactive); in the experiment on CAKI-1, > 100 µM (inactive). Also, in the experiment on MOLT-4, the GI50 was > 100 µM (inactive).
Take `CCOC(=O)/C(C#N)=C1/C(O)=C(C(=O)OC)C(C(=O)OC)=C1C(=O)OC.c1ccncc1`: the GI50 with SNB-75, in the experiment with SK-MEL-5, in the experiment on HL-60, in the experiment with A549, in the experiment with EKVX and in the experiment on NCI-H23 was > 100 µM (inactive) in each case. Moreover, the GI50 in the experiment on NCI-H460, in the experiment with TK-10, in the experiment with HOP-92, in the experiment with LOX IMVI, in the experiment with SN12C and with SW-620 was > 100 µM (inactive) in each case. In addition, the GI50 in the experiment on CAKI-1, with MOLT-4 and with KM-20L2 was > 100 µM (inactive) in each case.
Consider `C[N+](C)(C)CC(=O)N/N=C(\CCC(=O)NCCc1ccccc1)CC(=O)c1ccccc1`, for which the GI50 with SK-MEL-5, in the experiment on HCT-116, in the experiment on NCI-H226, in the experiment on HL-60, in the experiment on A549 and in the experiment with EKVX was > 100 µM (inactive) in each case. The GI50 in the experiment on NCI-H23, in the experiment with NCI-H460, with TK-10, with HOP-92, in the experiment with LOX IMVI and in the experiment on SN12C was > 100 µM (inactive) each time. The GI50 in the experiment with SW-620, in the experiment with CAKI-1, in the experiment with MOLT-4 and in the experiment on KM-20L2 was > 100 µM (inactive) throughout.
For the compound `COC(=O)[C@@H]1C[C@@H](O)CN1C(=O)c1ccc([N+](=O)[O-])cc1[N+](=O)[O-]`, the GI50 in the experiment on T47D was > 100 µM (inactive); in the experiment on MDA-N, > 100 µM (inactive); in the experiment on SNB-75, > 100 µM (inactive); in the experiment with SK-MEL-5, 96.6 µM (inactive); in the experiment on HCT-116, > 100 µM (inactive); in the experiment on NCI-H226 it was > 100 µM (inactive). Besides, the GI50 in the experiment on HL-60, in the experiment with A549, with EKVX, in the experiment on NCI-H23, in the experiment on NCI-H460 and with TK-10 was > 100 µM (inactive) in each case. The GI50 in the experiment with SR, in the experiment on HOP-92, in the experiment with LOX IMVI, in the experiment with SN12C, with SW-620 and with CAKI-1 was > 100 µM (inactive) throughout. For the same compound, in the experiment on MOLT-4, the GI50 was > 100 µM (inactive).
